# Data published in patent publication US11439646B2, “Anti-proliferative agents for treating PAH” (Pfizer Inc., priority 2016, dated 2022).
# Read-outs that look alike come from different tables or passages of the source.
# What was measured:
# human primary PASMCs = assay: BrdU cell proliferation assay, human primary PASMCs; assay type: cell-based; conditions: PASMC
# Protocol: (§1) Cell proliferation assay. Primary PASMCs and PAAFs from normal human subjects (ScienCell Research Laboratories, San Diego, Calif., USA) and rat primary PASMCs (Cell Applications, San Diego, Calif., USA) were plated in CellBIND® 96-well plates in Dulbecco's modification of Eagle's medium (DMEM) containing 5% fetal bovine serum (FBS), and serum-starved for 24 h in DMEM containing 0.1% FBS. Cells were first pre-incubated with different concentrations of palbociclib (in triplicates) for 30 minutes, and then 30 ng/ml PDGF-BB or 5% FBS was added to stimulate cell proliferation. Cells were maintained for 48 h before the proliferation rate was evaluated using the Cell Proliferation ELISA BrdU (bromodeoxyuridine) Luminescence Kit (Roche Diagnostics, Mannheim, Germany). BrdU was added to the medium 16 h before the quantification of BrdU incorporation. This procedure was use to generate data as presented in at least FIGS. 1a, 1b, 1c, and 1d. IC50 values were calculated for any given inhibitor by determining the concentration of compound needed to inhibit 50% of the response applied to the system. IC50 values were derived from the four parameter logistic equation which was fit to the compound concentration response data.
# rat primary PASMCs = assay: BrdU cell proliferation assay, rat primary PASMCs; assay type: cell-based; conditions: PASMC, 24 h, 5% FBS, average of 3, FIG. 1d, read-out: IC50, proliferation of rat primary PASMCs induced by 5% FBS
# Protocol: as §1
# hPASMC = assay: EdU cell proliferation assay, hPASMC; assay type: cell-based; conditions: Homo sapiens, 5% FBS, N = 6, FIG. 1e, read-out: hPASMC IC50 (nM), inhibition of proliferation
# Protocol: Alternatively, rather than using BrdU, EdU (5-ethynyl-2′-deoxyuridine) can be used. Cells were first pre-incubated with different concentrations of the CDK inhibitor for 30 minutes, and then 5% FBS was added to stimulate cell proliferation. Cells were maintained for 24 h before the proliferation rate was evaluated using EDU Click-iT EdU Alexa Fluor® 647 HCS Assay (Thermofisher Scientific, USA). EdU was added to the medium 16 h before the quantification of EdU incorporation. Proliferation was quantified by scanning the 96-well plates using automated high content imaging platform equipped with appropriate fluorescence microscopic filters for DAPI (4′,6-Diamidino-2-Phenylindole) or Hoechst stain and Cyanine5 dyes as part of the Click-iT assay. Proliferating EdU positive cells detected at Cyanine5 were quantified and normalized to total cell number per well where the total cell number per cell was identified by DAPI or Hoechst signal. The % effect was then calculated:
# The average (avg) amount (amt) of proliferating cells per concentration of CDK inhibitor with FBS present.
# The minimum amount of proliferation (min amt of prolif'n) is based on cell numbers in the wells where FBS is not added and no CDK inhibitor is present.
# The maximum amount of proliferation (max amt of prolif'n) is based on cell numbers in the wells where FBS is added and no CDK inhibitor is present.
# [1] = test system: Rat MCT-induced PAH Model; assay: Rat MCT-induced PAH model (hemodynamics, histomorphometry, IHC); assay type: in vivo
# Protocol: Rat MCT-induced PAH Model: Male Sprague-Dawley rats (Charles River Laboratories) (260-280 g; vehicle control group, n=6; all other groups, n=15) received MCT (50 mg/kg, SC; 1 ml/kg BVV) dissolved in vehicle (33.3% 1 N HCl, 14.8% 1 N NaOH, 52.2% diH2O) or vehicle alone on day 0. Sildenafil (50 mg/kg/dose; BID) was administered (5 ml/kg, PO) either prophylactically from days 0-28 or therapeutically from days 14-28. Palbociclib (100 mg/kg; QD) was administered therapeutically (days 14-28). Both sildenafil and palbociclib were resuspended in vehicle (0.5% methylcellulose) and administered orally (5 ml/kg). On day 28, animals were anesthetized via isoflurane, hemodynamic parameters were evaluated, and tissues harvested after euthanasia.
# Hemodynamic measurements—monocrotaline (MCT) study: On day 28, animals were anesthetized via 2% isofluorane in positive pressure ventilator. Pulmonary hemodynamics were measured using a pre-calibrated pressure transducer in isoflurane positive-pressure ventilated animals. Steady-state pulmonary and systemic arterial pressures were measured using a Millar Solid State Mikro-tip catheter (Millar Instruments, Houston, Tex.) introduced to the pulmonary arterial trunk at the level of the aortic arch via the right carodid artery. Hemodynamic values were automatically calculated by the physiological data acquisition system, ADI Chart (ADI Instruments, Colorado Springs, Colo.) (Plato BioPharma).
# Measurement of RV hypertrophy. After collection of the heart at necropsy, the atria and great vessels were removed. The RV was separated from the LV and S. The wet weights of the RV and LV+S were measured to calculate the Fulton Index.
# Tissue preparation. Under anesthesia, the animals were exsanguinated, and the pulmonary circulation flushed with oxygenated (animals from Example 3 [MCT]) or heparizined (animals from Example 4 [Su5416/Hx]) saline. Trachea, lungs, and heart were removed intact from thoracic cavity and placed in ice-cold saline. Right lung lobes were removed, weighed, and immediately flash frozen in liquid nitrogen. A 10 mL syringe filled with fixative (10% NBF) with attached blunt tip needle (20 g) was used to inflate the left lung lobe and the airway was tied off to keep it consistently expanded. The left lung was then immersion fixed in 10% NBF for 48 hrs and then transferred to 70% EtOH for ≤5 days.
# Histomorphometric analysis. Three, 3-5 μm thick, transverse sections of the left lung lobe were used for histomorphometric analysis. Overall disease severity scores were determined by light microscopic evaluation of hematoxylin and eosin (H&E)-stained lung sections by a board-certified veterinary pathologist. Scores ranged from 0 (absent), 1 (minimal), 2 (mild), 3 (moderate), 4 (marked) to 5 (severe) and were assigned according to the approximate percentage of the tissue affected by the tissue changes (inflammatory, degenerative, vascular and/or proliferative) characteristic of the PAH model. Average vessel wall thickness was evaluated using lung sections prepared with a modified Verhoeff-van Gieson elastin stain. Image analysis was performed using random field sampling (Visiopharm newCAST) of 10% of tissue area with observer-assisted identification of intra-acinar and pre-acinar vessels and application of a nucleator probe to measure vessel wall thickness. Fully muscularized intra-acinar vessel density was evaluated in a similar manner using dual αSMA/Ki67 IHC-stained sections and observer-assisted counting of ≥70% muscularized (i.e. SMA^+), transversely sectioned, ≤50 μm external diameter, intra-acinar vessels with an identifiable lumen. Vessel-associated Ki67^+ and pRb^+ cells were counted in αSMA/Ki67 IHC-and CD31/pRb IHC-stained lung sections, respectively, using random field sampling of 10% of tissue area and observer-assisted identification of Ki67^+ or pRb^+ cells associated with the walls (i.e. in the intima or media) of vessels 100 μm external diameter.
# Immunohistochemistry. […]
# [2] = day 14-28, score scale 0-5, FIG. 3g
compound,measurement,setting,value
"CC(=O)c1c(C)c2cnc(Nc3ccc(N4CCNCC4)cn3)nc2n(C2CCCC2)c1=O [Palbociclib, 6-acetyl-8-cyclopentyl-5-methyl-2-{[5-(piperazin-1-yl)pyridin-2yl]amino}pyrido[2,3-d]pyrimidin-7(8H)-one]",IC50,"human primary PASMCs; 30 ng/ml PDGF-BB, average of 3, FIG. 1a, read-out: IC50, PDGF-BB induced proliferation of human primary PASMCs",7.4 nM
same,IC50,"human primary PASMCs; 5% FBS, average of 3, FIG. 1b, read-out: IC50, proliferation of human primary PASMCs induced by 5% FBS",7.4 nM
same,IC50,rat primary PASMCs,27.4 nM
same,IC50,hPASMC,0.3 nM
same,structural changes in the pulmonary vasculature (histomorphometry),[1]; FIG. 3f,dramatically improved and in some cases fully normalized
same,"vessel-associated Ki67+ proliferating cells (IHC, lung)",[1]; FIG. 5c,dramatically decreased to control levels
same,"vessel-associated phosphoRb+ cells (IHC, lung)",[1]; FIG. 5d,dramatically decreased to control levels
same,density of fully muscularized intra-acinar vessels (αSMA staining),"[1]; day 14-28, FIG. 3e",greater reduction
same,"average vessel wall thickness (elastin staining), intra-acinar and pre-acinar pulmonary arteries, relative to vehicle/MCT group","[1]; day 14-28, FIG. 3d",0.58 x MCT
same,"disease severity scores, mean",[1]; [2],1
same,"disease severity scores, range",[1]; [2],0-2
same,hemodynamic and physiologic effects,"[1]; palbociclib 100 mg/kg/day PO QD, therapeutic day 14-28, versus sildenafil day 0-28",not only matched but exceeded the positive hemodynamic and physiologic effects of sildenafil when dosed prophylactically
